This passage reports TGI and GI50 results from PubChem BioAssay (NCI).

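Protocol summary: plate cells (96-well), add compound at 5 concentrations, incubate 48 h, interpolate endpoints linearly. The concentration for 50% growth inhibition is given as GI50. Definition used: TGI = concentration required for complete inhibition of growth.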

Usually TGI stands for the concentration at which net growth stops. The low end stands for more potent growth arrest, the high end for less potent growth arrest. A word on the GI50: it is the concentration giving 50% growth inhibition.

Among the test systems are SK-OV-3 ovarian; NCI-H460 lung; MALME-3M melanoma; CCRF-CEM leukemia; M14 melanoma; T-47D breast; MDA-MB-435; OVCAR-8 ovarian; OVCAR-4 ovarian; UACC-62 melanoma.
Holding throughout (test): DTP human tumour cell line panel, 48 h

As for `CN(CCCNC(=O)c1cc(-c2ccccc2)nc2ccccc12)CCCNC(=O)c1cc(-c2ccccc2)nc2ccccc12`, the TGI with SK-OV-3 ovarian worked out at 26.2 µM; in the assay with NCI-H460 lung it was 3.81 µM; in the assay with MALME-3M melanoma it was 3.39 µM; with CCRF-CEM leukemia it was 17.6 µM; in the assay with M14 melanoma it was 3.17 µM; with T-47D breast, 9.92 µM. Moreover, the TGI with MDA-MB-435 was determined as 3.17 µM; with OVCAR-8 ovarian, 5.65 µM; in the assay with OVCAR-4 ovarian, 11.3 µM; in the assay with UACC-62 melanoma, 4.31 µM.

On to `CC1CC(C#N)=C2NCCN2C1=O` (stereo not given), for which the TGI in the assay with SK-OV-3 ovarian is > 100 µM; in the assay with NCI-H460 lung it was > 100 µM; in the assay with MALME-3M melanoma, > 100 µM; with CCRF-CEM leukemia, > 100 µM; with M14 melanoma, 33.5 µM; in the assay on T-47D breast, > 100 µM. For the same compound, the TGI is 50.1 µM in the assay with MDA-MB-435, > 100 µM in the assay on OVCAR-8 ovarian and > 100 µM with OVCAR-4 ovarian.

With `Cc1cc2c(cc1C)[n+](=O)c(C(=O)c1ccccc1)c(C(F)(F)F)n2[O-]`, the TGI is > 28.8 µM with SK-OV-3 ovarian; 2.98 µM in the assay on NCI-H460 lung; 9.89 µM with MALME-3M melanoma; 8.52 µM in the assay with CCRF-CEM leukemia; 16.5 µM in the assay with M14 melanoma; 5.08 µM in the assay with T-47D breast. Besides, the total growth inhibition concentration (TGI) with MDA-MB-435 is 11.2 µM; with OVCAR-8 ovarian, > 26.8 µM; with OVCAR-4 ovarian, 1.71 µM; in the assay with UACC-62 melanoma, 7.72 µM.

Consider `O=C1Cc2c([nH]c3ccc(C(=O)O)cc23)-c2ccccc2N1`, for which the TGI in the assay on SK-OV-3 ovarian, in the assay on NCI-H460 lung, with MALME-3M melanoma, in the assay with CCRF-CEM leukemia, in the assay with M14 melanoma and with T-47D breast was > 100 µM throughout. Besides, the TGI with MDA-MB-435, in the assay on OVCAR-8 ovarian, in the assay with OVCAR-4 ovarian and in the assay on UACC-62 melanoma was > 100 µM each time.

As to `COc1ccc(CNc2cc(=O)n(C)c(=O)[nH]2)cc1`, the TGI in the assay with SK-OV-3 ovarian, in the assay with NCI-H460 lung, in the assay on MALME-3M melanoma, in the assay with CCRF-CEM leukemia, in the assay on M14 melanoma and with T-47D breast was > 100 µM throughout. Further, the concentration for total growth inhibition (TGI) in the assay on MDA-MB-435, in the assay with OVCAR-8 ovarian, with OVCAR-4 ovarian and with UACC-62 melanoma was > 100 µM in each case.

For `CN(C)CCc1c2c(nc3ccccc13)C(=O)c1cccnc1C2=O`, the concentration for total growth inhibition (TGI) is 2.52 µM with SK-OV-3 ovarian; 0.5 µM in the assay with NCI-H460 lung; 1.79 µM in the assay on MALME-3M melanoma; 4.85 µM with CCRF-CEM leukemia; 0.4 µM with M14 melanoma; 10.6 µM in the assay with T-47D breast. For the same compound, the TGI in the assay on MDA-MB-435 is 1.15 µM; with OVCAR-8 ovarian, 1.66 µM; in the assay on OVCAR-4 ovarian, 2.79 µM; in the assay with UACC-62 melanoma, 0.738 µM.

For the compound `CCCCNc1nc(NC2OCC(OC(C)=O)C(OC(C)=O)C2OC(C)=O)c(N=O)c(=O)n1C` (stereo not given), the TGI in the assay with SK-OV-3 ovarian, with NCI-H460 lung, in the assay on MALME-3M melanoma, in the assay with CCRF-CEM leukemia, in the assay on M14 melanoma and in the assay with T-47D breast was > 10 µM each time. For the same compound, the TGI in the assay with MDA-MB-435, in the assay on OVCAR-8 ovarian, in the assay on OVCAR-4 ovarian and in the assay with UACC-62 melanoma was > 10 µM each time.

In the case of `O=[N+]([O-])c1ccc(C(O)(C#CCN2CCCC2)c2ccccc2)cc1` (stereo not given), the TGI in the assay with SK-OV-3 ovarian is > 100 µM; in the assay on NCI-H460 lung, > 100 µM; in the assay with MALME-3M melanoma, 30.4 µM; in the assay on CCRF-CEM leukemia, 57.5 µM; in the assay with M14 melanoma, 33.6 µM; in the assay with T-47D breast, 98.9 µM. For the same compound, the concentration for total growth inhibition (TGI) is 80.1 µM with MDA-MB-435, > 100 µM in the assay on OVCAR-8 ovarian, > 100 µM with OVCAR-4 ovarian and 87.4 µM in the assay with UACC-62 melanoma.

For the compound `COC(=O)C(Cc1c[nH]c2ccccc12)N=C1Nc2ccncc2S(=O)(=O)N1c1cccc(OC(C)C)c1` (stereo not given), the concentration for total growth inhibition (TGI) in the assay with SK-OV-3 ovarian, in the assay on NCI-H460 lung, in the assay on MALME-3M melanoma, with CCRF-CEM leukemia, with M14 melanoma and with T-47D breast was > 100 µM each time. The TGI in the assay with MDA-MB-435, in the assay on OVCAR-8 ovarian, in the assay with OVCAR-4 ovarian and with UACC-62 melanoma was > 100 µM in each case.

As to `c1ccc(CC2COC(c3cccs3)=N2)cc1` (stereo not given), the TGI with SK-OV-3 ovarian, in the assay with NCI-H460 lung, in the assay with MALME-3M melanoma, in the assay on CCRF-CEM leukemia, in the assay on M14 melanoma and in the assay with T-47D breast was > 100 µM each time. Besides, the TGI in the assay with MDA-MB-435, in the assay on OVCAR-8 ovarian, in the assay on OVCAR-4 ovarian and in the assay on UACC-62 melanoma was > 100 µM throughout.

Turning to `COc1ccc(Nc2ccc([N+](=O)[O-])cc2[N+](=O)[O-])cc1CN(CCCl)CCCl`, the GI50 was 3.85 µM with SK-OV-3 ovarian; 1.82 µM in the assay with NCI-H460 lung; 1.96 µM with MALME-3M melanoma; 0.64 µM in the assay with CCRF-CEM leukemia; 2.72 µM in the assay with M14 melanoma; 2.6 µM in the assay on T-47D breast. Besides, the results for the GI50 in the assay on MDA-MB-435, in the assay with OVCAR-8 ovarian and in the assay with OVCAR-4 ovarian were 1.92 µM, 3.02 µM and 2.7 µM, respectively. In addition, the TGI with SK-OV-3 ovarian was > 100 µM; in the assay on NCI-H460 lung, 6.16 µM; with MALME-3M melanoma, 4.71 µM; with CCRF-CEM leukemia, 20.7 µM; with M14 melanoma, 19.6 µM; with T-47D breast, 26.4 µM. Moreover, the TGI in the assay with MDA-MB-435 was 4.39 µM; with OVCAR-8 ovarian it was > 100 µM; in the assay on OVCAR-4 ovarian, > 100 µM.

Regarding `C1CSCCSCCCSCCSCCCSCCSCCCSCCSC1`, the total growth inhibition concentration (TGI) in the assay on SK-OV-3 ovarian, in the assay on NCI-H460 lung, in the assay with MALME-3M melanoma, in the assay with CCRF-CEM leukemia, in the assay with M14 melanoma and in the assay with T-47D breast was > 100 µM each time. The TGI in the assay with MDA-MB-435, with OVCAR-8 ovarian and in the assay with OVCAR-4 ovarian was > 100 µM each time.

As for `CC(C)(CCC(C)(C)N1OC1c1ccccc1)N1OC1c1ccccc1` (stereo not given), the TGI in the assay on SK-OV-3 ovarian is > 100 µM; with NCI-H460 lung, > 100 µM; with MALME-3M melanoma it was > 100 µM; in the assay with CCRF-CEM leukemia, 35 µM; in the assay with T-47D breast it was > 100 µM; in the assay on MDA-MB-435, > 100 µM. Moreover, the TGI in the assay on OVCAR-8 ovarian, in the assay with OVCAR-4 ovarian and in the assay on UACC-62 melanoma was > 100 µM in each case.
